≈ marks a conversion by molar mass, not a printed value.

For data set [1] the following is noted: cited from earlier work.
The conditions of data set [2]: cited from earlier work. The source holds these as a separate data set.
The conditions of data set [3]: in vivo; cited from earlier work.
The target in another data set is human serum albumin (Homo sapiens, UniProt P02768). The experiment in a line: binding constant to human serum albumin (TRANSIL technology). An excerpt: The effective molecular weight (MW) is obtained simply from the respective empirical formula of the substance. The waters solubilities and the typical administered dosages of these commercially available products are furthermore known from the literature.
Sequence of human serum albumin (P02768 25-609): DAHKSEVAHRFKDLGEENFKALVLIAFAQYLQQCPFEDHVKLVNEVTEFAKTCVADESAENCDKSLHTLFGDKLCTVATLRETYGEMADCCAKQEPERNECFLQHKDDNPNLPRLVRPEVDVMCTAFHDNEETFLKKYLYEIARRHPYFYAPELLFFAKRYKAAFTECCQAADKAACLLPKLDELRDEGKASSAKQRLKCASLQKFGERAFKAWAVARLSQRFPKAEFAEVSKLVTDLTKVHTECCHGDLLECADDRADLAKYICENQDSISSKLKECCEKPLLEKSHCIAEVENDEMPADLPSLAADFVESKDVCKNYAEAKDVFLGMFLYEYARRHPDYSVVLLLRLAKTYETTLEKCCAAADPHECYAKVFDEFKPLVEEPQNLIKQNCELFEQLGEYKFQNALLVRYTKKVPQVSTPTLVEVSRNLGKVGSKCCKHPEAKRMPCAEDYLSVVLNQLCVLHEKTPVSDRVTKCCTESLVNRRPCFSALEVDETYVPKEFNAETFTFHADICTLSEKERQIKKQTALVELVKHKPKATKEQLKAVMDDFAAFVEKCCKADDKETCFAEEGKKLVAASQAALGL
The ADME maps in FIGS. 5 to 10 show by way of example a selection of commercially available pharmaceutical substances. The substance names and the associated experimental measurement values for their physicochemical properties are summarised in Table 1.

Data set [4] in a line: membrane affinity as a measure of the lipophilicity (TRANSIL technology). The class given is physicochemical.
For data set [5] the following is noted: water solubility, from the literature; cited from earlier work.
Setting [6] is: log binding constant to human serum albumin, TRANSIL.

A word on the logP: it is the decadic logarithm of the partition coefficient of the neutral form, usually between octanol and water. A word on the pKa: it is the pH at which an ionisable group is half protonated. With `CON(C)C(=O)Nc1ccc(Cl)cc1` [monolinuron], the logP in data set [1] is given as 2.2. The pKa in data set [2] is recorded as 13.8.

With `CCOC(=O)c1ccccc1S(=O)(=O)NC(=O)Nc1nc(Cl)cc(OC)n1` [chlorimuron-ethyl], the logP in data set [1] is recorded as 2.7. In addition, the pKa in data set [2] was 4.2.

As for `COc1nc(C)nc(NC(=O)NS(=O)(=O)c2ccccc2OCCCl)n1` [triasulfuron], in data set [1], the logP is 1.6. The pKa in data set [2] is 4.64.

In the case of `COc1cc(Cl)nc(NC(=O)NS(=O)(=O)c2ccccc2C(=O)O)n1` [chlorimuron], the logP in data set [1] is 0.11. For the same compound, the pKa in data set [2] is 4.2.

`CCC(C)n1c(=O)[nH]c(C)c(Br)c1=O` (stereo not shown) [bromacil]: the logP in data set [1] is listed as 1.88. The pKa in data set [2] is given as 9.27.

On to `COc1nc(C)nc(N(C)C(=O)NS(=O)(=O)c2ccccc2C(=O)O)n1` [tribenuron], for which the logP in data set [1] was −0.44. Besides, the pKa in data set [2] is 5.

For the compound `C[C@@H](Oc1ccc(Cl)cc1Cl)C(=O)O` [dichlorprop-P], the pKa in data set [2] is recorded as 3.67.

As for `COC(=O)c1ccc(C(F)(F)F)nc1S(=O)(=O)NC(=O)Nc1nc(OC)cc(OC)n1` [flupyrsulfuron-methyl-sodium], the logP in data set [1] was 1.3. Also, the pKa in data set [2] is recorded as 4.9.

For `CN(C)C(=O)Nc1ccc(Cl)c(Cl)c1` [diuron], the logP in data set [1] is recorded as 2.85. For the same compound, in data set [2], the pKa was 13.8.

On to `O=C(O)c1c(Cl)ccc2cc(Cl)cnc12` [quinclorac], for which the logP in data set [1] is reported as 3.6. In data set [2], the pKa is reported as 4.34.

`COC(=O)c1cc(Oc2ccc(Cl)cc2Cl)ccc1[N+](=O)[O-]` [bifenox]: the logP in data set [1] is 4.5. In addition, the pKa in data set [2] is listed as 13.8.

`COc1nc(C)nc(=NC(=O)NS(=O)(=O)c2ccccc2C(=O)O)[nH]1` [metsulfuron]: the logP in data set [1] is 2. The pKa in data set [2] is 3.3.

itraconazoles: in data set [3], the passive oral absorption entry is listed as “can be passively absorbed well”.

Take `O=C(Nc1nc(OC(F)F)cc(OC(F)F)n1)NS(=O)(=O)c1ccccc1C(=O)O` [primisulfuron]: the logP in data set [1] was 0.06. In data set [2], the pKa is given as 3.47.

As for `COc1cc(OC)nc(NC(=O)NS(=O)(=O)c2ncccc2C(=O)N(C)C)n1` [nicosulfuron], in data set [1], the logP is recorded as 0.5. Also, in data set [2], the pKa is listed as 4.6.

Turning to `COc1cc(OC)nc(NC(=O)NS(=O)(=O)Cc2ccccc2C(=O)O)n1` [bensulfuron], in data set [1], the logP was 0.62. Further, the pKa in data set [2] was 5.2.

With `O=C(O)COc1ccc(Cl)cc1Cl` [2,4-D], in data set [1], the logP is listed as 2.58. For the same compound, in data set [2], the pKa was 2.73.

For the compound `COc1cc(OC)nc(NC(=O)NS(=O)(=O)N(C)S(C)(=O)=O)n1` [amidosulfuron], the log partition coefficient (logP) in data set [1] is 1.63. Besides, the pKa in data set [2] is listed as 3.58.

Turning to `COC(=O)c1ccccc1S(=O)(=O)NC(=O)Nc1nc(C)cc(C)n1` [sulfometuron-methyl], in data set [1], the logP is 1.4. For the same compound, the pKa in data set [2] is on record as 5.2.

For `Cc1cc(Cl)ccc1OCC(=O)O` [MCPA], the logP in data set [1] is 2.75. Besides, in data set [2], the pKa was 3.07.

For the compound `CC(Oc1ccc(Oc2ccc(Cl)cc2Cl)cc1)C(=O)O` (stereo not shown) [diclofop], the logP in data set [1] is reported as 4.5. Moreover, the pKa in data set [2] is 3.43.

The Solubility is how much of the substance goes into solution per volume. In turn, Clomipramin showed a LogHSA at human serum albumin (setting [6]) of −2.796. Moreover, the LogMA in data set [4] was 4.104. The Solubility in data set [5] was 0.294 µg/mL.

`COc1cccc2c1C(=O)c1c(O)c3c(c(O)c1C2=O)C[C@@](O)(C(=O)CO)C[C@@H]3O[C@H]1C[C@H](N)[C@H](O)[C@H](C)O1` [Doxorubicin] displayed a LogHSA on human serum albumin (setting [6]) of −1.886. Besides, in data set [4], the LogMA stood at 2.322. In data set [5], the Solubility is 93 µg/mL (≈ 171 µM).

For `CCN(CC)CCNC(=O)c1ccc(NC(C)=O)cc1` [N-Acetylprocainamide], the LogHSA at human serum albumin (setting [6]) is reported as −2.268. In data set [4], this compound yielded a LogMA of 1.176. For the same compound, the Solubility in data set [5] was greater than 1000 µg/mL.

Take `Cc1cc(C)nc(NC(=O)NS(=O)(=O)c2ccccc2C(=O)O)n1` [sulfometuron]: the logP in data set [1] is listed as −0.51. In addition, in data set [2], the pKa is listed as 5.2.

For the compound `Cc1nccn1CC1CCc2c(c3ccccc3n2C)C1=O` (stereo not shown) [Ondansetron], the LogHSA at human serum albumin (human) was −3.237. Besides, the LogMA in data set [4] is 2.672. The Solubility in data set [5] was 5.7 µg/mL (≈ 19.4 µM).

In the case of `COc1nc(C)nc(NC(=O)NS(=O)(=O)c2ccsc2C(=O)O)n1` [thifensulfuron], in data set [1], the logP is on record as 0.02. Further, in data set [2], the pKa is 4.

For `CN1C(C(=O)Nc2ccccn2)=C(O)c2ccccc2S1(=O)=O` [Piroxicam], at human serum albumin (human), the LogHSA was −5.301. Further, the LogMA in data set [4] was 2.079. Moreover, in data set [5], the Solubility is 521 µg/mL (≈ 1570 µM).

`CO/N=C(\C(=O)N[C@@H]1C(=O)N2C(C(=O)O)=C(CSc3nc(=O)c(=O)[nH]n3C)CS[C@H]12)c1csc(N)n1` [Ceftriaxone]: at human serum albumin (human), the LogHSA is recorded as −3.585. This compound displayed a LogMA in data set [4] of 0.903. In data set [5], the Solubility was 958 µg/mL (≈ 1730 µM).

Turning to `COC(=O)c1c(Cl)nn(C)c1S(=O)(=O)NC(=O)Nc1nc(OC)cc(OC)n1` [halosulfuron-methyl], in data set [1], the logP is listed as 2.9. The pKa in data set [2] is 3.44.

The values are drawn from US20050137807A1, “Method of visualization of the ADME properties of chemical substances” (priority 2003, published 2005).
